The subject of experiment [1] is Glycopeptide intermediate-resistant (GISA) S. aureus Mu-50 (ATCC 700695). Description: MBC and MDK99.9 determination (CFU counting). In kind it is cell-based, Staphylococcus aureus. Particulars: for MBC: Staphylococcus aureus, ATCC700695, cut-off 99.9% reduction in CFU. How it is done:
(§1) Further experiments were conducted using different strains of S. aureus, as clinically relevant Gram-positive bacterial strains: ATCC 25904, ATCC 6538, methilcillin-resistant S. aureus (MRSA) ATCC BAA-1556, Glycopeptide intermediate-resistant (GISA) S. aureus Mu-50 (ATCC 700695) in order to determine the Minimal Inhibitory Concentration (MIC) which is the minimal concentration required to prevent bacterial growth; the Minimal Bactericidal Concentration (MBC) which determines the lowest concentration at which an antimicrobial agent kill a particular microorganism and a Minimum Duration for killing 99.9% bacteria (MDK99.9) which is a tolerance metric according to the EUCAST.
(§2) MBC and MDK99.9 determination: A single colony selected from the different strains of S. aureus is resuspended and cultured in the appropriate medium (TSB, or BHI) overnight (O/N) in aerobic conditions (37° C. with 220 rpm shaking), next day a 1:100 inoculum in the appropriate medium was incubated in aerobic conditions for 2 h. The culture is then challenged with triafluocyl at MIC concentration or higher concentrations. Bacterial growth was measured after different time intervals by counting the colony-forming units after plating appropriate culture dilutions on BHI agar plates. […] And the real time needed is defined as the MDK99.9. MBC for Triafluocyl against S. aureus ATCC 25904, ATCC 6538, methilcillin-resistant S. aureus (MRSA) ATCC BAA-1556, Glycopeptide intermediate-resistant (GISA), and S. aureus Mu-50 (ATCC 700695) were 20 μg/ml for each of them. MDK99.9 for Triafluocyl against S. aureus ATCC 25904, ATCC 6538, methilcillin-resistant S. aureus (MRSA) ATCC BAA-1556, Glycopeptide intermediate-resistant (GISA), and S. aureus Mu-50 (ATCC 700695) were 10, 6, 2, and 14 hours, respectively.
(§3) For MBC determination a 1:100 inoculum of an O/N culture (prepared like before) was incubated in aerobic conditions for 2 h in bacteria-specific medium. The culture was then challenged with Fluometacyl at the MIC concentration or higher. Bacterial growth was measured after different time intervals by counting the colony-forming units (CFU) after plating appropriate culture dilutions on bacteria-specific medium agar plates.

The test system of experiment [2] is S. aureus ATCC 25904. Description: MBC and MDK99.9 determination (CFU counting). In kind it is cell-based, Staphylococcus aureus. The note with it: for MBC: Staphylococcus aureus, ATCC25904, cut-off 99.9% reduction in CFU. The procedure:
as §1, §2, §3

Experiment [3] concerns methilcillin-resistant S. aureus (MRSA) ATCC BAA-1556. The experiment in a line: MBC and MDK99.9 determination (CFU counting). Format: cell-based, Staphylococcus aureus. The note with it: for MBC: Staphylococcus aureus, cut-off 99.9% reduction in CFU. How it is done: as §1, §2, §3
The subject of experiment [4] is Escherichia coli (ATCC 8739). Description: MBC determination with polymyxin B nonapeptide (PMBN). Format: cell-based. Particulars: ATCC8739, in presence of 40 μg/ml PMBN, read-out: Minimal Bactericidal Concentration (MBC). The procedure: The MBC represents the lowest concentration of drug required to kill the bacteria in a liquid culture.
The Minimal Bactericidal Concentration (MBC) of Triafluocyl in presence of 40 μg/ml PMBN against Escherichia coli (ATCC 8739) is equal to 5 μg/ml (FIG. 11B).
The Minimal Bactericidal Concentration (MBC) of Fluometacyl in presence of 40 μg/ml PMBN against Escherichia coli (ATCC 8739) is equal to 5 μg/ml (FIG. 12B).

For experiment [5], the system named is Escherichia coli (ATCC 8739). The experiment in a line: MBC determination with C12(ω7)Kβ12 (OAK). Format: cell-based. Particulars: ATCC8739, in presence of 5 μg/ml OAK, read-out: Minimal Bactericidal Concentration (MBC). How it is done: Viable count in the liquid culture is estimated by counting the colony forming units (c.f.u.) on a Luria-Bertani (LB) agar plate—after 24 h incubation at 37° C.—and calculating the c.f.u. per milliliter of the liquid culture (c.f.u./ml).
The Minimal Bactericidal Concentration (MBC) of Triafluocyl in presence of 5 μg/ml OAK against Escherichia coli (ATCC 8739) is equal to 10 μg/ml (FIG. 13B).
The Minimal Bactericidal Concentration (MBC) of Fluometacyl in presence of 5 μg/ml OAK against Escherichia coli (ATCC 8739) is equal to 5 μg/ml (FIG. 14B).

Experiment [6] relates to E. faecalis ATCC 29212. Description: MIC determination (EUCAST, Mueller-Hinton broth). In kind it is cell-based. Particulars: Enterococcus faecalis, ATCC29212. How it is done: as §1, with “E. faecalis,” for “S. aureus,”, “strains: E. faecalis vancomycin-resistant (VRE)” for “strains:”, “BAA-2365, and E. faecalis” for “25904,”, “29212” for “6538, methilcillin-resistant S. aureus (MRSA) ATCC BAA-1556, Glycopeptide intermediate-resistant (GISA) S. aureus Mu-50 (ATCC 700695)”
MIC determination: A single colony selected from the different strains of E. faecalis is resuspended and cultured in the appropriate medium overnight (O/N) in aerobic conditions (37° C. with 220 rpm shaking), next day a 1:100 inoculum in Mueller-Hinton broth (MHB) was incubated in aerobic conditions for 3 hr (OD=0.08-0.1) and an inoculum of 1:300 dilution, corresponding to 3×10^5 CFU/ml, was incubated in presence or absence of different concentrations of Triafluocyl in 1% DMSO. After O/N growth the OD of each culture was measured at 600 nm in a spectrophotometer (OD600). The MIC represents the concentration at which there is no visible growth of bacteria, i.e. ΔOD at 600 nm equal to zero (blank is the medium alone). […]

Experiment [7] has as its system S. epidermidis. Description: Time-kill study in logarithmic phase. Format: cell-based, Staphylococcus epidermidis. How it is done: To evaluate Triafluocyl antibacterial effect we have tested S. epidermidis liquid growth in the presence of different Triafluocyl concentrations in logarithmic phase. […] A 1:100 inoculum in 50 ml TSB of an O/N culture of S. epidermidis was cultured for 3 hr up to its logarithmic phase (OD600=0.26 and ≈3×10^8 CFU/ml). Bacteria were split in several tubes containing different concentrations of DMSO as vehicle alone or in combination with Triafluocyl in TSB and grown for 100 min at 37° C. with 220 rpm shaking, the OD600 was measured every 20 min.

Converted amounts (≈) assume the structure as drawn.

As for `CCCSc1nc(N[C@@H]2C[C@H]2c2ccc(F)c(F)c2)c2nnn([C@@H]3C[C@H](O)[C@@H](O)[C@H]3O)c2n1` [Fluometacyl, (1S,2R,3S,4R)-4-[7-[[(1R,2S)-2-(3,4-Difluorophenyl)cyclopropyl]amino]-5-(propylthio)-3H-1,2,3-triazolo[4,5-d]pyrimidin-3-yl]-1,2,3-cyclopentanetriol], the MBC in experiment [1] (S. aureus MU50 GISA) turned out to be 38 µM; in experiment [2], 38 µM; in experiment [3], 38 µM; in experiment [4] it was 5 µg/mL; in experiment [5], 5 µg/mL.
By MIC is commonly meant the lowest concentration that inhibits growth of the organism. `CCCSc1nc(N[C@@H]2C[C@H]2c2ccc(F)c(F)c2)c2nnn([C@@H]3C[C@H](OCCO)[C@@H](O)[C@H]3O)c2n1` [Triafluocyl, (1S,2S,3R,5S)-3-[7-[(1R,2S)-2-(3,4-difluorophenyl)cyclopropylamino]-5-(propylthio)-3H-[1,2,3]-triazolo[4,5-d]pyrimidin-3-yl]-5-(2-hydroxyethoxy)-1,2-cyclopentanediol] had an MIC in experiment [6] of 40 µg/mL (≈ 76.5 µM). For the same compound, the “MDK 99.9 Time (h) needed to kill 99.9% of the started inoculum” value is given as 14 h in experiment [1] (S. aureus Mu50 GISA), 10 h in experiment [2] and 2 h in experiment [3]. For the same compound, the MBC in experiment [1] (S. aureus Mu50 GISA) was determined as 20 µg/mL; in experiment [2] it was 20 µg/mL; in experiment [3], 20 µg/mL; in experiment [4], 5 µg/mL; in experiment [5] it was 10 µg/mL. The “S. epidermidis growth (OD600)” value is “slight bacteriostatic activity” in experiment [7] (50 μg/ml); “dose-dependent inhibition” in experiment [7] (between 10 μg/ml and 20 μg/ml, compared to DMSO (0.25%), 100 min). Moreover, in experiment [7] (50 μg/ml, at 80 min), the “number of viable cells” value is 3×10^8 CFU/ml.

(Values after US10905691B2, “Use of triazolo(4,5-d)pyrimidine derivatives for prevention and treatment of bacterial infection” (Universite de Liege, priority 2016, dated 2021).)
